Test results taken from ChEMBL document CHEMBL3997842, “Discovery of novel BTK inhibitors with carboxylic acids” (Bioorg Med Chem Lett, 2017).
pIC50: −log10 of the molar value. Values belong to the compound of their own block, whether it stands above or below them.

How the values were obtained:
HeLa = assay: Inhibition of [3H]-adenosine uptake in human HeLa cells preincubated for 30 mins followed by [3H]-adenosine addition measured after 60 mins by PMT-based radiometric detection method; format: cell-based; conditions: 1 h
[1] = Apparent permeability of the compound; format: physicochemical; conditions: not told
[2] = target: T1, Tyrosine-protein kinase BTK (Homo sapiens, UniProt Q06187); assay: Inhibition of BTK in human PBMC
[3] = target: Sodium channel protein type 5 subunit alpha (Homo sapiens, UniProt Q14524); assay: Inhibition of Nav1.5 (unknown origin)
[4] = Clearance in iv dosed rat; format: ADME, organism-based; conditions: in vivo
[5] = Half life in iv dosed rat; format: ADME, organism-based; conditions: in vivo
[6] = target: Voltage-dependent L-type calcium channel subunit alpha-1C (Homo sapiens, UniProt Q13936); assay: Inhibition of Cav1.2 (unknown origin)
[7] = Unbound fraction in rat; format: ADME
[8] = target: Voltage-gated inwardly rectifying potassium channel KCNH2 (Homo sapiens, UniProt Q12809); assay: Inhibition of human ERG
[9] = target: T1, Tyrosine-protein kinase BTK; assay: Inhibition of 6-His-tagged recombinant full length BTK (unknown origin) expressed in baculovirus-transfected Sf9 cells using Biotin-EQEDEPEGDYFEWLE-NH2 as substrate preincubated for 60 mins followed by substrate addition measured after 120 mins by LANCE TR-FRET assay
[10] = Oral bioavailability in rat; format: ADME, organism-based; conditions: in vivo
[11] = Clearance in iv dosed dog; format: ADME, organism-based, Canis lupus familiaris; conditions: in vivo
[12] = Oral bioavailability in dog; format: ADME, organism-based, Canis lupus familiaris; conditions: in vivo
[13] = Half life in iv dosed dog; format: ADME, organism-based, Canis lupus familiaris; conditions: in vivo
[14] = Half life in rat; format: ADME; conditions: in vivo
[15] = Plasma clearance in rat; format: ADME

Voltage-gated inwardly rectifying potassium channel KCNH2, sequence (Q12809 whole entry): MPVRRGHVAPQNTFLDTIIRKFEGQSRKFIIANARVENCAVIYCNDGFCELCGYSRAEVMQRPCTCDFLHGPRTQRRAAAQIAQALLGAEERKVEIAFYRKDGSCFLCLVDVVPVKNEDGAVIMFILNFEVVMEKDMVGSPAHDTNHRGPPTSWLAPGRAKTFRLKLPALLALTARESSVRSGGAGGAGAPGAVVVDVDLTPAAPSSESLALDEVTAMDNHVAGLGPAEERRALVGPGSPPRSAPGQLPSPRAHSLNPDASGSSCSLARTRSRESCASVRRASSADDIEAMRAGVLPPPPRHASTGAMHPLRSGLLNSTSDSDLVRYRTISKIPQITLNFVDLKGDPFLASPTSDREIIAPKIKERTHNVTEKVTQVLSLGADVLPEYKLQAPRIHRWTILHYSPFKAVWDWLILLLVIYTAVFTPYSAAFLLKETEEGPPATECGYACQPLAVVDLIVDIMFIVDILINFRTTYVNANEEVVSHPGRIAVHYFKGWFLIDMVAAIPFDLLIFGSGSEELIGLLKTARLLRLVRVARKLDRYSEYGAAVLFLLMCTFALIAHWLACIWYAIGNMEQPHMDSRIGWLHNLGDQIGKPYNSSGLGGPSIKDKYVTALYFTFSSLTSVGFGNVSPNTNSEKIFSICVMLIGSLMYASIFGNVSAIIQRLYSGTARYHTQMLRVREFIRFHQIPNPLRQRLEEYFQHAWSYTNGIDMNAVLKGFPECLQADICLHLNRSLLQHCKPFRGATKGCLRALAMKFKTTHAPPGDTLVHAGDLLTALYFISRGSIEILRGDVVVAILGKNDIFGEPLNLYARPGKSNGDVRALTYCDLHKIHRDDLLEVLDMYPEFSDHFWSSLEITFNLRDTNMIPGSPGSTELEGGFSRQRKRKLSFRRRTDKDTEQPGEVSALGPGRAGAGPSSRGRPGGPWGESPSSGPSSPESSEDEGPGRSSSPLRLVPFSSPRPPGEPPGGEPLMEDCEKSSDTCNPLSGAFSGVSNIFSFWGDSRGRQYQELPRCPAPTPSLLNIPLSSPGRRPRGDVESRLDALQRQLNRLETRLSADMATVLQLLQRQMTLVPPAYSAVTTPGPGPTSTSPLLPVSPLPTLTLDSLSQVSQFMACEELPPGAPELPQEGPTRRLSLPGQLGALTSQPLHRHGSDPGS
Sodium channel protein type 5 subunit alpha, sequence (Q14524 whole entry): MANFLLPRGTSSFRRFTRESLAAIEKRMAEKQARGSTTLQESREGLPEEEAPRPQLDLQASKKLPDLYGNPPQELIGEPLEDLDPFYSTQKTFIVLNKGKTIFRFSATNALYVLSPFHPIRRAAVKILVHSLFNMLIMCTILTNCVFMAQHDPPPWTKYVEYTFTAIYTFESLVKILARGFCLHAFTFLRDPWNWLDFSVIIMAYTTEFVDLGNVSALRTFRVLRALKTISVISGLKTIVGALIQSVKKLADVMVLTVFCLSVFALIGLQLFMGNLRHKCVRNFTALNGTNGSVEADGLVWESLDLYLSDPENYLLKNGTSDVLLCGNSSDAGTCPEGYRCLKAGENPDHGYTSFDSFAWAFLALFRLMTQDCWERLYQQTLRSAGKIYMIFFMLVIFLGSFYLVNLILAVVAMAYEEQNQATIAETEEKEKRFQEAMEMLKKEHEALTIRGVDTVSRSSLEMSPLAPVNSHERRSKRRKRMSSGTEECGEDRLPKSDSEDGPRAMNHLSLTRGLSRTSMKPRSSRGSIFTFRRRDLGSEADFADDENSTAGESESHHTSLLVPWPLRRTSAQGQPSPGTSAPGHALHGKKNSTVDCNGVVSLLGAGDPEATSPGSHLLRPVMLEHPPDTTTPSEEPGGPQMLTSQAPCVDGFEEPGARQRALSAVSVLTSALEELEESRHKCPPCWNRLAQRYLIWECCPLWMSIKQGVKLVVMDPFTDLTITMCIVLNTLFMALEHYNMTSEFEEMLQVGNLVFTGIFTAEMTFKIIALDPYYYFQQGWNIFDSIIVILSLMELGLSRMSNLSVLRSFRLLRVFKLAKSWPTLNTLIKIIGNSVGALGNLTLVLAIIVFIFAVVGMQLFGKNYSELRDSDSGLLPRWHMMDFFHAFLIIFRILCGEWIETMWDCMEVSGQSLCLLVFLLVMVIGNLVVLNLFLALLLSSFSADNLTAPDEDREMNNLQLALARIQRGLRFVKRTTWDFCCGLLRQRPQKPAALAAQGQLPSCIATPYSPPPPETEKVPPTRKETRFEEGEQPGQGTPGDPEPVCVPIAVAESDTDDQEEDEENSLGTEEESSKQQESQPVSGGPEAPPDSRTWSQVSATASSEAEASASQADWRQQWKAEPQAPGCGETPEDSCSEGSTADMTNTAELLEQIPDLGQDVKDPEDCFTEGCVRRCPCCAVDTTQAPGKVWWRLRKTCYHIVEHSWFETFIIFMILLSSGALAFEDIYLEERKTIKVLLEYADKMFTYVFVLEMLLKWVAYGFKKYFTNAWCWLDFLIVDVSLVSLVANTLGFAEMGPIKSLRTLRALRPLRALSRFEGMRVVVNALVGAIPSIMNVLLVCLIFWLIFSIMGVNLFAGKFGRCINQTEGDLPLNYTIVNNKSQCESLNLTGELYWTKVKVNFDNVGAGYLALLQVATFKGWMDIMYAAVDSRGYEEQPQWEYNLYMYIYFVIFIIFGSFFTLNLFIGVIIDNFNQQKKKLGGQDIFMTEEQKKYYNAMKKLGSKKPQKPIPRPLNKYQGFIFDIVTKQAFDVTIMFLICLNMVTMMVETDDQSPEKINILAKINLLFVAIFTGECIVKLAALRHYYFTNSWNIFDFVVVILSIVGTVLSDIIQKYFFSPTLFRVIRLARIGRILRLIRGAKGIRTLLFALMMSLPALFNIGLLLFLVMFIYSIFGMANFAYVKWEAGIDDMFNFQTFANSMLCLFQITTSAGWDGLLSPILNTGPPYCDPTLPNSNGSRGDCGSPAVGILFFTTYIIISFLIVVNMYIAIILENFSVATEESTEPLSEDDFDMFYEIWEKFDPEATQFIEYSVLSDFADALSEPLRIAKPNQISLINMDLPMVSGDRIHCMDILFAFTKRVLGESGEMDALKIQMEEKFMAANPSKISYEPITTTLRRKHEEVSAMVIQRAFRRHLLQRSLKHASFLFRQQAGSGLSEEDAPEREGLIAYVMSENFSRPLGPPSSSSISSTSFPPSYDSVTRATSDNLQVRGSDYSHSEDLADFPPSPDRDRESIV
T1 sequence (Q06187 whole entry): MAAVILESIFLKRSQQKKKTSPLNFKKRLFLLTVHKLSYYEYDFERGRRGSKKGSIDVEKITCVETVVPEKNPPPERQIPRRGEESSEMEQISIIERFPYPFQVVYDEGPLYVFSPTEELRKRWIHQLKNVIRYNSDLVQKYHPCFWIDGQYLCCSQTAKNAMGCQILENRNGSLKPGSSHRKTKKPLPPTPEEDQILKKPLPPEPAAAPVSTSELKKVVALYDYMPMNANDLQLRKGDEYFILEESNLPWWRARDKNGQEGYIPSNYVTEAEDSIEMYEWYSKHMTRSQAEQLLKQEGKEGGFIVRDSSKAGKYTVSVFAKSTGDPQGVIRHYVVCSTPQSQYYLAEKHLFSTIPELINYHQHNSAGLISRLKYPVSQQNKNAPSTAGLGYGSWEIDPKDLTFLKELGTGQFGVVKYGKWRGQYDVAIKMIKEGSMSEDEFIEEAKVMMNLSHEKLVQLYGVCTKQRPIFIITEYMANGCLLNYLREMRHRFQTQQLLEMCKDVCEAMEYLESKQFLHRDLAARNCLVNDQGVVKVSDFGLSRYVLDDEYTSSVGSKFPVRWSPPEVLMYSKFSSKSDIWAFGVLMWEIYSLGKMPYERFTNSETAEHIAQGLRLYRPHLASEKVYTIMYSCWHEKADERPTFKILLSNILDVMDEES

SMILES: CC(C)[C@@]1(C(=O)O)CC[C@@](C)(c2nc(-c3ccc(C(=O)Nc4cc(C(F)(F)F)ccn4)cc3)c3c(N)nccn23)C1
pIC50 [2]: 7.70
pIC50 [3]: < 4.52
Inhibitory concentration (HeLa): 4010 nM
clearance [4]: 2.8 mL/min/kg
half-life [5]: 2 h
pIC50 [6]: 5.10
fraction unbound [7]: 0.003
pIC50 [8]: < 4.22
pIC50 [9]: 9.40
bioavailability [10]: 44%

SMILES: Nc1nccn2c1c(-c1ccc(C(=O)Nc3cc(C(F)(F)F)ccn3)cc1)nc2[C@H]1CC[C@H](C(=O)O)CC1
Inhibitory concentration (HeLa): > 10000 nM

SMILES: C[C@]1(C(=O)O)CC[C@@](C)(c2nc(-c3ccc(C(=O)Nc4cc(C(F)(F)F)ccn4)cc3)c3c(N)nccn32)CC1
clearance [11]: 13 mL/min/kg
pIC50 [2]: 7.77
pIC50 [3]: < 4.52
bioavailability [12]: 77%
Inhibitory concentration (HeLa): 1452 nM
half-life [13]: 5.8 h
clearance [4]: 13 mL/min/kg
half-life [5]: 5 h
pIC50 [6]: 4.82
fraction unbound [7]: 0.001
pIC50 [8]: < 4.22
pIC50 [9]: 9.00
bioavailability [10]: 75%

SMILES: Nc1nccn2c([C@H]3C[C@@H]4[C@H](C3)[C@H]4C(=O)O)nc(-c3ccc(C(=O)Nc4cc(C(F)(F)F)ccn4)cc3)c12
Inhibitory concentration (HeLa): 1927 nM

SMILES: Nc1nccn2c(C34CCC(C(=O)O)(CC3)CC4)nc(-c3ccc(C(=O)Nc4cc(C(F)(F)F)ccn4)cc3)c12
pIC50 [2]: 8.30
Inhibitory concentration (HeLa): 308 nM
pIC50 [9]: 9.70

SMILES: C[C@]1(C(=O)O)CC[C@@H](c2nc(-c3ccc(C(=O)Nc4cc(C(F)(F)F)ccn4)cc3)c3c(N)nccn23)C1
Inhibitory concentration (HeLa): 5396 nM

SMILES: Nc1nccn2c(C34C5C6C3C3C4C5C63C(=O)O)nc(-c3ccc(C(=O)Nc4cc(C(F)(F)F)ccn4)cc3F)c12 (stereo unspecified)
Inhibitory concentration (HeLa): 812 nM

SMILES: CCOc1cc(C(=O)Nc2cc(C(F)(F)F)ccn2)ccc1-c1nc(C23CCC(C(=O)O)(CC2)CC3)n2ccnc(N)c12
half-life [14]: 0.8 h
pIC50 [3]: < 4.52
clearance [15]: 139 mL/min/kg
pIC50 [6]: 4.82
bioavailability [10]: 30%

SMILES: C[C@H]1CC[C@@H](c2nc(-c3ccc(C(=O)Nc4cc(C(F)(F)F)ccn4)cc3F)c3c(N)nccn23)CN1C(=O)C1CC1
Inhibitory concentration (HeLa): 110 nM

SMILES: Nc1nccn2c1c(-c1ccc(C(=O)Nc3cc(C(F)(F)F)ccn3)cc1)nc2[C@H]1CC[C@@H](C(=O)O)CC1
Inhibitory concentration (HeLa): > 10000 nM

SMILES: C[C@]1(C(=O)O)CCC[C@@](C)(c2nc(-c3ccc(C(=O)Nc4cc(C(F)(F)F)ccn4)cc3)c3c(N)nccn23)C1
pIC50 [2]: 7.74
pIC50 [3]: < 4.52
Inhibitory concentration (HeLa): 6073 nM
clearance [4]: 9 mL/min/kg
half-life [5]: 3 h
pIC50 [6]: 4.89
fraction unbound [7]: 0.002
pIC50 [9]: 10.00
bioavailability [10]: 22%

SMILES: Nc1nccn2c1c(-c1ccc(C(=O)Nc3cc(C(F)(F)F)ccn3)cc1)nc2[C@]12CC[C@](C(=O)O)(CC1)C2
pIC50 [2]: 8.05
Inhibitory concentration (HeLa): 459 nM
pIC50 [9]: 9.70

SMILES: C[C@]1(C(=O)O)CC[C@@](C)(c2nc(-c3ccc(C(=O)Nc4cc(C(F)(F)F)ccn4)cc3)c3c(N)nccn23)C1
pIC50 [2]: 8.10
pIC50 [3]: < 4.52
Inhibitory concentration (HeLa): 1699 nM
clearance [4]: 2 mL/min/kg
half-life [5]: 2.4 h
pIC50 [6]: 4.72
fraction unbound [7]: 0.001
pIC50 [9]: 9.70
bioavailability [10]: 39%

SMILES: CC1(C(=O)O)CCC(c2nc(-c3ccc(C(=O)Nc4cc(C(F)(F)F)ccn4)cc3)c3c(N)nccn23)CC1 (stereo unspecified)
Inhibitory concentration (HeLa): 2492 nM

SMILES: Nc1nccn2c1c(-c1ccc(C(=O)Nc3cc(C(F)(F)F)ccn3)cc1)nc2[C@]12CCC[C@](C(=O)O)(CC1)CC2
pIC50 [2]: 8.22
Inhibitory concentration (HeLa): 274 nM
pIC50 [9]: 9.52

SMILES: Nc1nccn2c(C34CC(C(=O)O)(C3)C4)nc(-c3ccc(C(=O)Nc4cc(C(F)(F)F)ccn4)cc3)c12
pIC50 [2]: 7.17
Inhibitory concentration (HeLa): 6476 nM
pIC50 [9]: 9.40

More lines, main results first:

Inhibitory concentration (HeLa): 168 nM
Papp [1]: 20 ×10⁻⁶ cm/s
SMILES: Nc1nccn2c([C@@H]3CCC[C@H](c4nnc[nH]4)C3)nc(-c3ccc(C(=O)Nc4cc(C(F)(F)F)ccn4)cc3)c12

Inhibitory concentration (HeLa): 45 nM
SMILES: NC(=O)[C@H]1CCC[C@@H](c2nc(-c3ccc(C(=O)Nc4cc(C(F)(F)F)ccn4)cc3)c3c(N)nccn23)C1

Inhibitory concentration (HeLa): 155 nM
Papp [1]: 26 ×10⁻⁶ cm/s
SMILES: Cn1nnnc1[C@H]1CCC[C@@H](c2nc(-c3ccc(C(=O)Nc4cc(C(F)(F)F)ccn4)cc3)c3c(N)nccn23)C1

fraction unbound [7]: 0.002
SMILES: C[C@]1(C(=O)O)CCC[C@@H](c2nc(-c3ccc(C(=O)Nc4cc(C(F)(F)F)ccn4)cc3)c3c(N)nccn23)C1 (racemic)

Inhibitory concentration (HeLa): 5600 nM
Papp [1]: 2 ×10⁻⁶ cm/s
SMILES: CS(=O)(=O)NC(=O)[C@H]1CCC[C@@H](c2nc(-c3ccc(C(=O)Nc4cc(C(F)(F)F)ccn4)cc3)c3c(N)nccn23)C1

Inhibitory concentration (HeLa): 44 nM
SMILES: Nc1nccn2c([C@@H]3CCC[C@H](c4n[nH]c(=O)o4)C3)nc(-c3ccc(C(=O)Nc4cc(C(F)(F)F)ccn4)cc3)c12

Inhibitory concentration (HeLa): 150 nM
Papp [1]: 28 ×10⁻⁶ cm/s
SMILES: Cn1nnc([C@H]2CCC[C@@H](c3nc(-c4ccc(C(=O)Nc5cc(C(F)(F)F)ccn5)cc4)c4c(N)nccn34)C2)n1

Inhibitory concentration (HeLa): > 10000 nM
Papp [1]: 3 ×10⁻⁶ cm/s
SMILES: Nc1nccn2c([C@@H]3CCC[C@H](c4nn[nH]n4)C3)nc(-c3ccc(C(=O)Nc4cc(C(F)(F)F)ccn4)cc3)c12

Inhibitory concentration (HeLa): 9086 nM
SMILES: Nc1nccn2c([C@@H]3CCC[C@H](c4noc(=O)[nH]4)C3)nc(-c3ccc(C(=O)Nc4cc(C(F)(F)F)ccn4)cc3)c12

half-life [14]: 1.2 h
Papp [1]: 7 ×10⁻⁶ cm/s
clearance [15]: 7.9 mL/min/kg
bioavailability [10]: 2%
SMILES: Nc1nccn2c([C@@H]3CCC[C@H](C(=O)O)C3)nc(-c3ccc(C(=O)Nc4cc(C(F)(F)F)ccn4)cc3)c12
pIC50 [3]: < 4.52
pIC50 [6]: < 4.52
pIC50 [8]: < 4.22
